The values that follow are results of earlier work, collected in EP4512398A1, “FLURALANER FOR USE IN METHODS OF TREATMENT AND PREVENTION OF SEA LICE INFESTATION IN FISH” (Bimeda Animal Health Limited, priority 2023, dated 2025).

The data set deals with parasites with resistance to organophosphates, pyrethroids and carbamates. Conditions: bio-assays, background statement; cited from earlier work.

Consider `Cc1cc(C2=NOC(c3cc(Cl)cc(Cl)c3)(C(F)(F)F)C2)ccc1C(=O)NCC(=O)NCC(F)(F)F` (stereo not shown) [fluralaner, Fluralaner], for which the “efficacy against parasites with resistance to organophosphates, pyrethroids and carbamates” value is on record as “effective”.
